{"source": "patent US10730851B2", "about": "“Polymorph of triaryldimethylpiperazine dihydrochloride and preparation method and application thereof” (priority 2016, dated 2020)", "key": {"[1]": {"assay": "Relative bioavailability test", "format": "in vivo, SPF-grade SD rats", "settings": "rat, in vivo, po", "procedure": "HPLC-MS/MS method is used to detect the blood drug concentration of target drugs in SPF-grade SD rats, and the relative bioavailability of 0.5% CMC-Na suspension of a free base and 0.5% CMC-Na solution of a polymorph form P are calculated and compared.\n60.46 mg of a free base is accurately weighed and placed into a 15 mL centrifuge tube, 12 mL of 0.5% CMC-Na solution is measured and added into the centrifuge tube with a measuring cylinder, vortexed for 5 min, and ultrasonically dispersed for 15 min to obtain 0.5% CMC-Na suspension of free base with a concentration of 5.04 mg/ml, which is currently formulated when using and vibrated at any time during administration.\n60.05 mg of a polymorph form P is accurately weighed and placed into a 15 mL centrifuge tube, 12 mL of 0.5% CMC-Na solution is measured and added into the centrifuge tube with a measuring cylinder, vortexed for 5 min, and ultrasonically dispersed for 15 min to obtain 0.5% CMC-Na solution of 5.00 mg/mL polymorph form P, which is currently formulated when using.\nTwelve SPF-grade SD rats are selected and randomly divided into a free base group and a polymorph form P group with 6 rats in each group (both male and female). Animals are fasted for 12 h but have free access to water. Weighing is performed and, the administration volume of each rat is calculated according to the animal weight, so that the administration dose is 20 mg/kg·bw. During administration, the drugs are each administrated by gavage, and 0.5% CMC-Na suspension/solution of the above two target drugs are extracted by 2 mL syringe respectively. The gavage needle is inserted into the stomach from the corner of the rat's mouth and pushed the solution thereto.\nBlood is collected from the fundus venous plexus of rats at 0.2 mL before (0 h) and 0.5, 1, 2, 4, 6, 8, 12 and 24 h after administration, anticoagulated with 300 IU/mL heparin (1:20) and centrifuged (3000 r/min) for 15 min. After plasma separation, the blood drug concentration of the target drug is determined by HPLC-MS/MS.\nReferring to the above-mentioned bioavailability test of the polymorph form P, the bioavailability tests of polymorph forms F, O, B and J are conducted respectively. Different from the bioavailability test of the polymorph form P, rats are given 0.5% CMC-Na solution of the polymorph form F, O, B or J by gavage respectively. Other operations are the same as the above bioavailability test."}, "[2]": {"assay": "Stability test: physical stability by XRPD under four environmental conditions", "format": "physicochemical", "settings": "for Crystal form, after nitrogen purging at 60° C. for 2 h / Crystal form, after 40° C./75% RH for one week / Crystal form, after drying at 60 ° C. overnight / Crystal form, after nitrogen purging overnight at room: XRPD; for Crystal form, after nitrogen purging at 60° C. for 2 h / Crystal form, after drying at 60 ° C. overnight / Crystal form, after nitrogen purging overnight at room: dihydrochloride; for Physical stability after standing under the four conditions: conditions 1 to 4; for Crystal form, after 40° C./75% RH for one week / Crystal form, after drying at 60 ° C. overnight: open bottle; for Crystal form, after nitrogen purging overnight at room: room temperature", "procedure": "The physical stability of polymorph forms P, F and J are studied under the following four different environmental conditions.\n10 mg to 15 mg of polymorph forms P, F and J are each weighed and placed in a 1.5 mL glass bottle, and the glass bottle is placed open for one week in a constant temperature and humidity box under the conditions of 40° C. and 75% RH, and then XRPD tests are carried out on the polymorph forms P, F and J to determine whether the crystal forms of the samples change. FIGS. 11 to 13 are XRPD comparative patterns of polymorph forms P, F and J before and after one week of storage at 40° C. and 75% RH, respectively.\n10 mg to 15 mg of polymorph forms P, F and J are each weighed and placed in a 1.5 mL glass bottle, and the glass bottle is placed open overnight in a constant temperature drying oven under the condition of 60° C. Then XRPD test is carried out on the polymorph forms P, F and J to determine whether the crystal forms of the samples change. FIGS. 14 to 16 are XRPD comparative patterns of the polymorph forms P, F and J before and after being placed overnight under a drying condition of 60° C., respectively.\n10 mg to 15 mg of polymorph forms P, F and J are each weighed and placed in a 1.5 mL glass bottle, and nitrogen is purged for 2 h under the condition of 60° C. in a nitrogen blower, and then XRPD tests are carried out on the polymorph forms P, F and J to determine whether the crystal forms of the samples change. FIGS. 17 to 19 are XRPD comparative patterns of the polymorph forms P, F and J before and after nitrogen purging for 2 h at 60° C., respectively.\n10 mg to 15 mg of polymorph forms P, F and J are each weighed and placed in a 3 mL glass bottle, nitrogen is blown overnight at room temperature in a nitrogen blower, and then XRPD tests are carried out on the polymorph forms P, F and J to determine whether the crystal forms of the samples change. FIGS. 20 to 22 are XRPD comparative patterns of the polymorph forms P, F and J before and after nitrogen purging overnight at room temperature, respectively.\nJudging from XRPD comparative patterns of various polymorph forms, the physical stability properties of the polymorph forms P, F and J are obtained, and the results are shown in Table 8."}}, "note": "Where a name gives a salt, the structure may show the parent alone."}
{"smiles": "CC1CCN(C(=O)c2ccc([C@H](c3cccc(O)c3)N3C[C@@H](C)N(Cc4cccc(F)c4)C[C@@H]3C)cc2)CC1", "note": "[Polymorph form B, (4-((R)-((2S,5R)-4-(3-fluorobenzyl)-(2,5-dimethylpiperazine-1-yl)(3-hydroxyphenyl)methyl)phenyl)(4-methylpiperidine-1-yl)methanone dihydrochloride]", "values": [{"measurement": "bioavailability compared with free base", "setting": "[1]", "result": "better bioavailability than free base"}]}
{"smiles": "CC1CCN(C(=O)c2ccc([C@H](c3cccc(O)c3)N3C[C@@H](C)N(Cc4cccc(F)c4)C[C@@H]3C)cc2)CC1", "note": "[Polymorph form F, (4-((R)-((2S,5R)-4-(3-fluorobenzyl)-(2,5-dimethylpiperazine-1-yl)(3-hydroxyphenyl)methyl)phenyl)(4-methylpiperidine-1-yl)methanone dihydrochloride]", "values": [{"measurement": "bioavailability compared with free base", "setting": "[1]", "result": "better bioavailability than free base"}, {"measurement": "Crystal form, after nitrogen purging at 60° C. for 2 h", "setting": "[2]", "result": "invariability"}, {"measurement": "Physical stability after standing under the four conditions", "setting": "[2]", "result": "good stability"}, {"measurement": "Crystal form, after 40° C./75% RH for one week", "setting": "[2]", "result": "invariability"}, {"measurement": "Crystal form, after drying at 60 ° C. overnight", "setting": "[2]", "result": "invariability"}, {"measurement": "Crystal form, after nitrogen purging overnight at room", "setting": "[2]", "result": "invariability"}]}
{"smiles": "CC1CCN(C(=O)c2ccc([C@H](c3cccc(O)c3)N3C[C@@H](C)N(Cc4cccc(F)c4)C[C@@H]3C)cc2)CC1", "note": "[Polymorph form J, (4-((R)-((2S,5R)-4-(3-fluorobenzyl)-(2,5-dimethylpiperazine-1-yl)(3-hydroxyphenyl)methyl)phenyl)(4-methylpiperidine-1-yl)methanone dihydrochloride]", "values": [{"measurement": "bioavailability compared with free base", "setting": "[1]", "result": "better bioavailability than free base"}, {"measurement": "Crystal form, after 40° C./75% RH for one week", "setting": "[2]", "result": "invariability"}]}
{"smiles": "CC1CCN(C(=O)c2ccc([C@H](c3cccc(O)c3)N3C[C@@H](C)N(Cc4cccc(F)c4)C[C@@H]3C)cc2)CC1", "note": "[Polymorph form P, (4-((R)-((2S,5R)-4-(3-fluorobenzyl)-(2,5-dimethylpiperazine-1-yl)(3-hydroxyphenyl)methyl)phenyl)(4-methylpiperidine-1-yl)methanone dihydrochloride]", "values": [{"measurement": "AUC(0-t)", "setting": "[1]; both sexes, SD, 20 mg/kg", "result": 584, "unit": "ng·h/mL"}, {"measurement": "Cmax", "setting": "[1]; both sexes, SD, 20 mg/kg", "result": "98.1 ± 25.2", "unit": "ng/mL"}, {"measurement": "Tmax", "setting": "[1]; both sexes, SD, 20 mg/kg", "result": "1.3 ± 0.5", "unit": "h"}, {"measurement": "bioavailability", "setting": "[1]; both sexes, SD, 20 mg/kg", "result": 202, "unit": "%"}, {"measurement": "t1/2z", "setting": "[1]; both, SD, 20 mg/kg", "result": "2.5 ± 0.8", "unit": "h"}, {"measurement": "Crystal form, after nitrogen purging at 60° C. for 2 h", "setting": "[2]", "result": "invariability"}, {"measurement": "Physical stability after standing under the four conditions", "setting": "[2]", "result": "good stability"}, {"measurement": "Crystal form, after 40° C./75% RH for one week", "setting": "[2]", "result": "invariability"}, {"measurement": "Crystal form, after drying at 60 ° C. overnight", "setting": "[2]", "result": "invariability"}, {"measurement": "Crystal form, after nitrogen purging overnight at room", "setting": "[2]", "result": "invariability"}]}
{"smiles": "CC1CCN(C(=O)c2ccc([C@H](c3cccc(O)c3)N3C[C@@H](C)N(Cc4cccc(F)c4)C[C@@H]3C)cc2)CC1", "note": "[Polymorph form O, (4-((R)-((2S,5R)-4-(3-fluorobenzyl)-(2,5-dimethylpiperazine-1-yl)(3-hydroxyphenyl)methyl)phenyl)(4-methylpiperidine-1-yl)methanone dihydrochloride]", "values": [{"measurement": "bioavailability compared with free base", "setting": "[1]", "result": "better bioavailability than free base"}]}
